Laboratory results published in patent US10710988B2, “Piperazine derivative” (Astellas Pharma Inc., priority 2016, dated 2020).
Like-named read-outs stand apart in the source and are kept apart here.

Tests used:
[1] = molecular target: T1, human MC4 receptor (Homo sapiens, UniProt P32245); experiment: Human MC4 receptor activation, cAMP production in cells transiently expressing the receptor; assay type: cell-based; settings: FreeStyle 293-F cells expressing human MC4 receptor, α-MSH maximum = 100%
T1 construct: expressed in transfected cells; host or cells: FreeStyle 293-F cells (transient, electroporation)
T1 sequence (P32245 whole entry): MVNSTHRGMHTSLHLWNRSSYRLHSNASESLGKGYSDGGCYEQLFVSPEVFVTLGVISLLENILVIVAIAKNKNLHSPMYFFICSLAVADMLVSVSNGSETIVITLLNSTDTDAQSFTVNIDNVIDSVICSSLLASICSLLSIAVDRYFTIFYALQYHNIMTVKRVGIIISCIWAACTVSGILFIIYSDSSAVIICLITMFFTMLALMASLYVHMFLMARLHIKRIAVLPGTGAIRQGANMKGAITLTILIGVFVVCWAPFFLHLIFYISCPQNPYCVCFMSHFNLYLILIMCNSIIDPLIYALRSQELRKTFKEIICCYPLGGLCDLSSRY
Source text: (§1) (1) Construction of Human MC Receptor-Expressing Vector
(§2) A human MC4 receptor gene (GenBank Accession No.: NM_005912.2), a human MC1 receptor gene (GenBank Accession No.: NM_002386.3), or a human MC3 receptor gene (GenBank Accession No.: NM_019888.3) was introduced into an expression vector pcDNA™ 3.1N/V5-His TOPO (registered trademark) (Thermo Fisher Scientific Inc).
(§3) (2) Construction of Cells Transiently Expressing Human MC Receptor
(§4) An expression vector for a human MC4, MC1, or MC3 receptor was introduced into FreeStyle™ 293-F cells (Thermo Fisher Scientific Inc., product number: R790-07). For the introduction, electroporation was employed. That is, 1×10^7 FreeStyle™ 293-F cells were suspended in 80 μL of an Electroporation Buffer (Thermo Fisher Scientific Inc., product number: B201-100), and 20 μg of the expression vector was added thereto. The resultant was put into a cuvette (OC-100 Processing Assembly, MaxCyte, Inc.) and electroporated with MaxCyte STX (registered trademark) (MaxCyte, Inc.). The cells were cultured for a day, suspended in a Cell Banker (registered trademark) 1 (TAKARA BIO INC. or JUJI FIELD Inc., product number: BLC-1), and stored frozen until they were used.
(§5) (3) Measurement of Amount of cAMP Production
(§6) Measurement was carried out by using a LANCE (registered trademark) Ultra cAMP Kit (PerkinElmer, Inc.) in accordance with the attached instructions. That is, after dissolution in DMSO, the test compound (a final concentration of 1 pM to 30 μM) diluted with an assay buffer (Hank's balanced salt solution, 5 mM 4-(2-hydroxyethyl)-1-piperazineethanesulfonic acid (HEPES), 0.5 mM 3-isobutyl-1-methylxanthine (IBMX), 0.1% bovine serum albumin, pH 7.4), or α-MSH (Bachem Inc., a final concentration of 1 pM to 30 μM) was added to OptiPlate-384 (PerkinElmer, Inc.). Furthermore, the suspension of the cells transiently expressing the human MC4, MC1, or MC3 receptor prepared using the assay buffer was added thereto at 1,000 cells/well, and then left to stand at room temperature for about 1 hour. Thereafter, an Eu-cAMP tracer solution and an ULight™-anti-cAMP solution were added thereto, and then the resulting solution was left to stand at room temperature for about 1 hour. The amount of cAMP was calculated using EnVision (registered trademark) (PerkinElmer Inc.).
(§7) For the agonistic activity, the efficacy (EC50 (μM)) was calculated by a non-linear regression method with a Sigmoid-Emax model, by defining the maximum reaction using α-MSH as 100% and the reaction using the vehicle alone as 0%, respectively.

[2] = molecular target: T2, human MC1 receptor (Homo sapiens, UniProt Q01726); experiment: Human MC1 receptor activation, cAMP production in cells transiently expressing the receptor; assay type: cell-based; settings: FreeStyle 293-F cells expressing human MC1 receptor, α-MSH maximum = 100%
T2 construct: expressed in transfected cells; host or cells: FreeStyle 293-F cells (transient, electroporation)
T2 sequence (Q01726 whole entry): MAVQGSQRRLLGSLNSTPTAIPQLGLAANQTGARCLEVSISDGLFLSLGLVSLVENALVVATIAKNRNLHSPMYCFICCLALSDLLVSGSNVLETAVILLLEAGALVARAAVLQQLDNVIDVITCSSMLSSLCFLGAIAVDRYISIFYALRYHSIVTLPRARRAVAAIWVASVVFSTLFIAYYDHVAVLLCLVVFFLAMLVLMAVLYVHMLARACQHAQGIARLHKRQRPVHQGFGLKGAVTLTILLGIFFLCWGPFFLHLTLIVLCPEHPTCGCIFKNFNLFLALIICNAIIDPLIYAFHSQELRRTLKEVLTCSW
Source text: as §1, §2, §3, §4, §5, §6, §7

[3] = molecular target: T3, human MC3 receptor (Homo sapiens, UniProt P41968); experiment: Human MC3 receptor activation, cAMP production in cells transiently expressing the receptor; assay type: cell-based; settings: FreeStyle 293-F cells expressing human MC3 receptor, α-MSH maximum = 100%
T3 construct: expressed in transfected cells; host or cells: FreeStyle 293-F cells (transient, electroporation)
T3 sequence (P41968 whole entry): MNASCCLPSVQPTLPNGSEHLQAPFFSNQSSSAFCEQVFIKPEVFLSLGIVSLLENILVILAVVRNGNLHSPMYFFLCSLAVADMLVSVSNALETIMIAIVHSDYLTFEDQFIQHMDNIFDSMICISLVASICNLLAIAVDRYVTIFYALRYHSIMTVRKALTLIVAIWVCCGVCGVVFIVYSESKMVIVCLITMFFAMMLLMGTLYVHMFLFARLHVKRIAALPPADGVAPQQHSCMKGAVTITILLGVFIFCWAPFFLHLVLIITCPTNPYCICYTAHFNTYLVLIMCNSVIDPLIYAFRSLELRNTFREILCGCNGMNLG
Source text: as §1, §2, §3, §4, §5, §6, §7

[4] = tested on: phenylephrine-induced urethral pressure increase; experiment: Effect on rat urethral pressure (phenylephrine-induced urethral pressure increase); assay type: in vivo; settings: read-out: ID40
Description: The present Test Example was performed by partially modifying the technique reported as a testing system for evaluating a urethral resistance-reducing action (European Journal of Pharmacology, 679, 127-131 (2012)). Male Wistar rats (Charles River Laboratories Japan, Inc.) were anesthetized with urethane (1.2 g/kg ip), and immobilized in a supine position. The midline incision was performed in the lower abdominal portion such that the bladder was exposed. The bladder apex was incised, and from the incision site, a microchip pressure transducer catheter (3.5 Fr, Millar, Inc) was inserted and implanted into the inside of the urethra. In addition, a cannula for drug administration was implanted into the femoral vein. After the urethral pressure was stabilized, phenylephrine hydrochloride (Sigma-Aldrich Co. LLC., 30 μg/kg) was intravenously administered to induce an increase in the urethral pressure. At an interval of about 30 minutes, the above operation was repeated twice or more so as to confirm the stability of the phenylephrine hydrochloride-induced urethral pressure increasing reaction. Then, a test compound (dissolved in 20% dimethyl acetamide, 10% Cremophor (registered trademark), and 70% physiological saline) was intravenously administered, and after 5 minutes, phenylephrine hydrochloride was administered. The procedure of the administration of the test compound and the administration of phenylephrine hydrochloride was repeated at an interval of about 30 minutes, and 3 to 5 doses of the test compound was evaluated (the test compound was administered at increasing doses). The obtained data was introduced into a personal computer through PowerLab (registered trademark) (ADInstruments, Inc.) and analyzed using LabChart (registered trademark) (ADInstruments, Inc.). For the evaluation, the value (AUC value, mmHg-s) of the area under the urethral pressure for one minute before and after administration of phenylephrine hydrochloride was determined to calculate the difference (ΔAUC value) between the AUC value before the administration of phenylephrine hydrochloride and the AUC value after the administration of phenylephrine hydrochloride. The ΔAUC value obtained before administering the test compound was regarded as being 100%, and based on this, the ratio (reaction rate) of the ΔAUC value of the test compound at each dose was calculated. The dose at which the obtained reaction rate became 60% (40% as an inhibition rate) was defined as ID40, and the ID40 values of the test compounds were calculated by non-linear regression.

[5] = molecular target: T4, rat MC4 receptor (Rattus norvegicus, UniProt P70596); experiment: Rat MC4 receptor activation, cAMP production in cells transiently expressing the receptor; assay type: cell-based; settings: FreeStyle 293-F cells expressing rat MC4 receptor, α-MSH maximum = 100%
T4 construct: expressed in transfected cells; host or cells: FreeStyle 293-F cells (transient, electroporation)
T4 sequence (P70596 whole entry): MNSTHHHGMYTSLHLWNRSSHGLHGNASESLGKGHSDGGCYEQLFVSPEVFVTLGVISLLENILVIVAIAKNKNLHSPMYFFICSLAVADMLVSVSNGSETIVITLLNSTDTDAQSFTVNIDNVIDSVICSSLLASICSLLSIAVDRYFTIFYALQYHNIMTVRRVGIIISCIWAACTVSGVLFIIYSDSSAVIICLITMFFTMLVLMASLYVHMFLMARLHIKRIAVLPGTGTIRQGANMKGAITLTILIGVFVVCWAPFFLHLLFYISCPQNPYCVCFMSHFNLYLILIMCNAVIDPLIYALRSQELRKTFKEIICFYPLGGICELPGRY
Source text: (1) Construction of Rat MC4 Receptor-Expressing Vector
A rat MC4 receptor gene (GenBank Accession No.: NM_013099.3) was introduced into an expression vector pcDNA™ 3.1N/V5-His TOPO (registered trademark) (Thermo Fisher Scientific Inc.).
(2) Construction of Cells Transiently Expressing Rat MC4 Receptor
as §4, with “rat MC4” for “human MC4, MC1, or MC3”, “Inc.).” for “Inc., product number: R790-07).”, “electroporation buffer” for “Electroporation Buffer”, “Inc.),” for “Inc., product number: B201-100),”, “Inc.),” for “Inc., product number: BLC-1),”
as §5
Measurement was carried out in accordance with the attached instructions, using a LANCE (registered trademark) Ultra cAMP Kit (PerkinElmer, Inc.). That is, after dissolution in DMSO, the test compound (a final concentration of 1 pM to 30 μM) diluted with an assay buffer (Hank's balanced salt solution, 5 mM HEPES, 0.5 mM IBMX, 0.1% bovine serum albumin, pH 7.4), or α-MSH (Bachem Inc., a final concentration of 1 pM to 30 μM) was added to OptiPlate-384 (PerkinElmer, Inc.). Furthermore, the suspension of the cells transiently expressing the rat MC receptor that was prepared using the assay buffer was added thereto at 1,000 cells/well, and then left to stand at room temperature for about 1 hour. Thereafter, an Eu-cAMP tracer solution and an ULight™-anti-cAMP solution were added thereto, and the resulting solution was left to stand at room temperature for about 1 hour. The amount of cAMP was calculated using EnVision (registered trademark) (PerkinElmer Inc).
For the agonistic activity, an efficacy (EC50 (μM)) was calculated by a non-linear regression method with a Sigmoid-Emax model, by defining the maximum reaction using α-MSH as 100% and the reaction using a vehicle alone as 0%, respectively.

[6] = male Wistar rats, urethane anesthesia, intravenous, dose giving 40% inhibition of phenylephrine-induced urethral pressure ΔAUC

CC(=O)N[C@@H](CC(C)(C)C)C(=O)N1C[C@H](C)N(C(=O)[C@@H]2CN(C3CCOCC3)C[C@H]2c2ccc(Cl)cc2F)C[C@H]1C [Example 3] showed an EC50 [1] of 8 nM, an EC50 [2] of 5700 nM and an EC50 [3] of 310 nM. For the same compound, the ED40 ([4]; iv) was 8.9 mg/kg.
With CC(=O)N[C@@H](CC1CCCC1)C(=O)N1CCN(C(=O)[C@@H]2CN(C(C)(C)C)C[C@H]2c2ccc(F)cc2F)[C@@H](C)C1.Cl [Example 16, N-((2S)-1-[(3S)-4-{[(3S,4R)-1-tert-butyl-4-(2,4-difluorophenyl)pyrrolidin-3-yl]carbonyl}-3-methylpiperazin-1-yl]-3-cyclopentyl-1-oxopropan-2-yl) acetamide monohydrochloride] the EC50 [1] was 14 nM and the ED40 [4, 6] was 11 mg/kg.
For CC(=O)N[C@@H](CC(C)(C)C)C(=O)N1CCN(C(=O)[C@@H]2CN(C3CCOCC3)C[C@H]2c2ccc(Cl)cc2F)[C@@H](C)C1.Cl [Example 20, N-{(2S)-1-[(3S)-4-{[(3 S,4R)-4-(4-chloro-2-fluorophenyl)-1-(tetrahydro-2H-pyran-4-yl)pyrrolidin-3-yl]carbonyl}-3-methylpiperazin-1-yl]-4,4-dimethyl-1-oxopentan-2-yl}acetamide monohydrochloride], the EC50 [1] was 23 nM, the EC50 [2] was 8000 nM and the EC50 [3] was 1200 nM. The EC50 [5] was 7.6 nM and the ED40 [4, 6] was 40 mg/kg.
